{"source": "patent US7326768B2", "about": "“Goodpasture antigen-binding protein isoforms and protein misfolded-mediated disorders” (priority 2003, dated 2008)", "molecules": {"B1": {"name": "residues 1-299 of GPBP: C-terminal deletion mutant of GPBP with approximately 44-kDa molecular mass, SEQ ID NO:38 (protein)", "chain": "MSDNQSWNSSGSEEDPETESGPPVERCGVLSKWTNYIHGWQDRWVVLKNNALSYYKSEDETEYGCRGSICLSKAVITPHDFDECRFDISVNDSVWYLRAQDPDHRQQWIDAIEQHKTESGYGSESSLRRHGSMVSLVSGASGYSATSTSSFKKGHSLREKLAEMETFRDILCRQVDTLQKYFDACADAVSKDELQRDKVVEDDEDDFPTTRSDGDFLHSTNGNKEKLFPHVTPKGINGIDFKGEAITFKATTAGILATLSHCIELMVKREDSWQKRLDKETEKKRRTEEAYKNAMTELK", "modifications": "Derived sequence"}}, "key": {"[1]": {"tested_on": "NZW mice", "experiment": "Degenerative glomerulopathy in NZW mice (histochemical studies of kidney)", "format": "in vivo"}, "[2]": {"tested_on": "α3(IV)NC1-expressing cells (HEK293)", "experiment": "α3(IV)NC1 conformer production in cultured cells (Western blot of culture media)", "format": "cell-based, human", "details": "for α3(IV)NC1 conformer production in cultured cells: synthetic peptides 100-200 μM, organic compounds 5-50 μM, 24-48 h"}, "[3]": {"target": "T1, recombinant human GPBP (Homo sapiens, UniProt Q9Y5P4)", "T1 sequence (Q9Y5P4 1-624)": "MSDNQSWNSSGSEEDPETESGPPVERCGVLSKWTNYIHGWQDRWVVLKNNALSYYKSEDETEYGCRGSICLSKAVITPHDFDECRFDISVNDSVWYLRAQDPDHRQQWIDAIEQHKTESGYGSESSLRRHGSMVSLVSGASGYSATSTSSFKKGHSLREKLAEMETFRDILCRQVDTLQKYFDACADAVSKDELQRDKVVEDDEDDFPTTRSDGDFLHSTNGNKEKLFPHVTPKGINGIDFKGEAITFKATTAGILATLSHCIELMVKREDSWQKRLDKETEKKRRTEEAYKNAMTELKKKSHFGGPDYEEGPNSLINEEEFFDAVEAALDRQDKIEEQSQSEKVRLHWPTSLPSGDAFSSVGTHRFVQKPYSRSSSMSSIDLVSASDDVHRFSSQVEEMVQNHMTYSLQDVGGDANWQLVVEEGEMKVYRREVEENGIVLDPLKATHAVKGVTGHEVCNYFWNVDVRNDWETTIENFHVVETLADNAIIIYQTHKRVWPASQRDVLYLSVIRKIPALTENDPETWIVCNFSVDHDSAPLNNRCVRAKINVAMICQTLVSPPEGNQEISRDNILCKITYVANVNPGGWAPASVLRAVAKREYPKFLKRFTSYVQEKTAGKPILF", "experiment": "In vitro phosphorylation: GPBP kinase activity / autophosphorylation", "details": "for effect on GPBP autophosphorylation at decreasing concentrations: decreasing concentrations up to 10 μM; for GPBP kinase activity in vitro (autophosphorylation): modulators at 200 μM, 10 min autophosphorylation reaction"}, "[4]": {"tested_on": "C57BL/6 mice", "experiment": "DAB-Am-4 treatment of control mice (genetic background control)", "format": "in vivo", "details": "C57BL/6 control mice", "experimental": "Animal studies. NZW, male or female, 4-6 month-old were injected intraperitoneally either with 1 μg/g of body weight of DAB-Am-4 and/or with 20 μg/g of body weight of the Q2L or Q2D peptide. These products were administered in a volume of 500 μl of steril saline solution 3 times per week, at alternate days, during 12 consecutive weeks. Age-matched uninjected mice were used as controls. At the end of the experiment, mice were sacrificed and kidneys were fixed in 10% paraformaldehide and processed for pathological studies. Similar DAB-Am-4 treatment studies were performed on C57BL/6 animals for genetic background control."}, "[5]": {"target": "GPBP-PrP^C complex (Homo sapiens, UniProt Q9Y5P4)", "format": "binding, bovine PrP^C"}, "[6]": {"tested_on": "rat liver lysosomes", "format": "in vivo", "details": "lysosomes from liver of leupeptin-treated vs untreated rats", "experimental": "FIG. 6. Identification of 91-kDa GPBP isoform in rat liver lysosomes and evidence for processing to 44-47-kDa isoforms. In A, similar amounts (˜50 μg) of lysosomal fractions from liver of untreated (C) or leupeptin-treated (L) rats were analyzed by Western blot using Mab6 antibodies. In B, lysosomal fractions as in A were further fractioned and whole (W), soluble (S) or non-soluble (M) fractions were similarly analyzed.\nSubcellular fractioning and related studies. Rat liver subcellular fractionation was essentially performed as indicated in Aniento, F., Roche, E., Cuervo, A. M., Knecht, E. (1993). J. Biol. Chem. 268, 10463-10470. For some purposes lysosomal fractions (freshly prepared entire lysosomes) were dispersed in pure water and subjected to ten consecutive cycles of freezing and thawing to alter lysosomal membrane integrity (broken lysosomes). For other purposes, lysosomal fractions were similarly disrupted in the presence of protease inhibitors (PMSF 2 mM, leupeptin 0.2 mM and EDTA 2 mM) and subsequently centrifuged 130,000×g for 10 min at room temp to separate the soluble lysosomal fraction (also called here lysosomal extract) from the non-soluble fraction which, after rinse with 0.3 M saccharose in 10 mM MOPS pH 7.2, was used as the lysosomal membrane fraction."}, "[7]": {"tested_on": "GPBP mRNA", "experiment": "Silencing of GPBP expression in 293 cells (Western blot)", "format": "cell-based, human", "details": "293 cells transfected with silencer plasmid", "experimental": "FIG. 4. Cellular 91- and 120-kDa GPBP-related polypeptides are translation products of GPBP mRNA. Similar amounts (˜50 μg) of lysates from non-transfected 293 cells (1) or from 293 cells transfected with a plasmid encoding for SiGFP (2), SiGPBP (3), SiGPBP/Δ26-1 (4) SiGPBP/Δ26-2 (5), SiGPBP/Δ26-3 (6), SiGPBP/Δ26-4 (7) were analyzed by Western blot using the indicated antibodies.\nSimRNA production. Silencers were generated using pSilencer 2.1-U6 hygro plasmid (Ambion) following manufacturers recommendations. The oligonucleotide pairs used were:\nRecombinant protein expression in cultured cells. The pcDNA3-based contructs containing the cDNA encoding the different human proteins of interest were used to transfect human 293 cells using standard calcium phosphate procedures in ProFection Mammalian Transfection System (Promega). 24-48 h after transfection cell lysates were used for Western blot, precipitation or immunoprecipitation studies. Cells expressing GPBP or derived deletion mutants were collected on ice with 50 mM Tris HCl pH 7.4, 0.05% Triton X-100, 1 mM PMSF and 5 μg/ml leupeptin, disrupted by vortex and insoluble material discarded by centrifugation at 14.000 rpm in Eppendorf at 4° C. for 10 min and supernatant used for Western blot analysis."}, "[8]": {"target": "T2, GPBP (Homo sapiens, UniProt Q9Y5P4)", "T2 sequence (Q9Y5P4 1-299)": "B1 chain", "experiment": "Auto-phosphorylation of GPBP deletion mutant at pH 5", "format": "biochemical"}}, "note": "“Also recorded” adds a separate entry of the source.", "data": [{"molecule": "NCCCN(CCCN)CCCCN(CCCN)CCCN", "note": "[DAB-Am-4, polypropylenimine tetraamine dendrimer, reference compound]", "values": [{"measurement": "progression of the glomerulopathy", "setting": "[1]; 4-6 month-old NZW, 1 μg/g i.p. 3 times per week, 12 weeks", "result": "acceleration of the degenerative process, resulting in premature glomerulosclerosis at 7-9 month of age"}, {"measurement": "morphological pattern of disease progression", "setting": "[1]; NZW, DAB-Am-4 treatment", "result": "progression through Stages 3b and 4b"}, {"measurement": "α3(IV)NC1 conformer production in cultured cells", "setting": "[2]", "result": "potent activator"}, {"measurement": "α3(IV)NC1 conformer production in cultured cells", "setting": "[2]; listed as DAB-Am4", "result": "efficient increase in conformer production"}, {"measurement": "effect on GPBP autophosphorylation at decreasing concentrations", "setting": "[3]", "result": "activation"}, {"measurement": "GPBP kinase activity in vitro (autophosphorylation)", "setting": "[3]", "result": "potent activator; also recorded: caused induction"}, {"measurement": "histological changes", "setting": "[4]", "result": "not observed histological changes of relevance"}]}, {"molecule": "CN([C@@H](Cc1ccc(OS(=O)(=O)c2cccc3cnccc23)cc1)C(=O)N1CCN(c2ccccc2)CC1)S(=O)(=O)c1cccc2cnccc12", "note": "[KN62, 1-[N,O-bis-(5-Isoquinolinesulfonyl)-N-methyl-L-tyrosyl]-4-phenylpiperazine, reference compound]", "values": [{"measurement": "α3(IV)NC1 conformer production in cultured cells", "setting": "[2]", "result": "reduced cell conformer production"}, {"measurement": "GPBP kinase activity in vitro (autophosphorylation)", "setting": "[3]", "result": "inhibited GPBP kinase activity in vitro to a larger extent than KN93"}]}, {"molecule": "Cl.N", "note": "[NH4Cl]", "values": [{"measurement": "α3(IV)NC1 conformer production", "setting": "[2]; 20 mM NH4Cl", "result": "reduced conformer production"}]}, {"molecule": "CC[C@@H](C)[C@@H](NC(=O)[C@@H](CS)NC(=O)[C@@H](Cc1c[nH]cn1)NC(=O)[C@@H](CO)NC(=O)[C@@H](CC(C)C)NC(=O)[C@H](NC(=O)[C@@H](C)NC(=O)[C@@H](CC(C)C)NC(C)=O)[C@H](C)O)C(=O)N[C@H](CCC(=O)O)C(=O)N[C@H](CC(C)C)C(=O)N[C@H](CCSC)C(=O)N[C@@H](C(=O)N[C@H](CCCCN)C(=O)N[C@H](CCCNC(=N)N)C(N)=O)C(C)C", "note": "[Q2D]", "values": [{"measurement": "GPBP-PrP^C complex formation", "setting": "[5]", "result": "fully inhibited"}, {"measurement": "effect on GPBP autophosphorylation at decreasing concentrations", "setting": "[3]", "result": "inhibition"}, {"measurement": "GPBP kinase activity in vitro (autophosphorylation)", "setting": "[3]", "result": "more efficient inhibiting"}, {"measurement": "GPBP kinase activity in vitro (autophosphorylation)", "setting": "[3]; listed as D-amino acid version of Q2", "result": "more potent inhibitory activity"}]}, {"molecule": "CC[C@H](C)[C@H](NC(=O)[C@H](CS)NC(=O)[C@H](Cc1c[nH]cn1)NC(=O)[C@H](CO)NC(=O)[C@H](CC(C)C)NC(=O)[C@@H](NC(=O)[C@H](C)NC(=O)[C@H](CC(C)C)NC(C)=O)[C@@H](C)O)C(=O)N[C@@H](CCC(=O)O)C(=O)N[C@@H](CC(C)C)C(=O)N[C@@H](CCSC)C(=O)N[C@H](C(=O)N[C@@H](CCCCN)C(=O)N[C@@H](CCCNC(=N)N)C(N)=O)C(C)C", "note": "[Q2L]", "values": [{"measurement": "GPBP-PrP^C complex formation", "setting": "[5]", "result": "efficiently inhibited"}]}, {"molecule": "CC(=O)N[C@@H](CC(C)C)C(=O)N[C@@H](CC(C)C)C(=O)N[C@H](C=O)CCCNC(=N)N", "note": "[leupeptin]", "values": [{"measurement": "lysosomal GPBP immunoreactive polypeptides", "setting": "[6]", "result": "44-47-kDa polypeptides significantly diminished"}, {"measurement": "presence of α3(IV)NC1 proteolytic products", "setting": "[2]", "result": "inhibited the presence of proteolytic products"}]}, {"molecule": "CN[C@@H]1C[C@H]2O[C@@](C)([C@@H]1OC)n1c3ccccc3c3c4c(c5c6ccccc6n2c5c31)C(=O)NC4", "note": "[staurosporine, reference compound]", "values": [{"measurement": "GPBP kinase activity in vitro (autophosphorylation)", "setting": "[3]", "result": "efficiently impaired"}]}, {"molecule": "Ac-EKTAGKPILF-OH [Q4]", "values": [{"measurement": "α3(IV)NC1 conformer production in cultured cells", "setting": "[2]", "result": "reduction in conformer production; also recorded: more limited inhibitory effect"}, {"measurement": "GPBP kinase activity in vitro (autophosphorylation)", "setting": "[3]", "result": "inhibited GPBP autophosphorylation in a more limited manner; also recorded: poor inhibitor"}]}, {"molecule": "Ac-VLMASLETLCRIHKI-NH2 [Q2Lr, reference compound]", "values": [{"measurement": "GPBP-PrP^C complex formation", "setting": "[5]", "result": "no effect on complex formation"}]}, {"molecule": "SiGPBP/Δ26-1: silencer of GPBP and/or GPBPΔ26 expression, SEQ ID NO:47 (AAACUACAUUCAUGGGUGGCA; listed as RNA, chemistry not given here)", "values": [{"measurement": "GPBP expression (endogenous 91- and 120-kDa GPBP)", "setting": "[7]", "result": "diminish GPBP and/or GPBPΔ26 expression"}]}, {"molecule": "SiGPBP/Δ26-2: silencer of GPBP and/or GPBPΔ26 expression, SEQ ID NO:48 (guide AAACAGAGUAUGGCUGCAGAG; listed as RNA, chemistry not given here)", "values": [{"measurement": "GPBP expression (endogenous 91- and 120-kDa GPBP)", "setting": "[7]", "result": "silenced endogenous GPBP more efficiently than SiGPBP/Δ26-4"}, {"measurement": "GPBP expression (endogenous 91- and 120-kDa GPBP)", "setting": "[7]; listed as siGPBPΔ26-2", "result": "diminish GPBP and/or GPBPΔ26 expression"}]}, {"molecule": "SiGPBP/Δ26-3: silencer of GPBP and/or GPBPΔ26 expression, SEQ ID NO:49 (guide AAGUACUUUGAUGCCUGUGCU; listed as RNA, chemistry not given here)", "values": [{"measurement": "GPBP expression (endogenous 91- and 120-kDa GPBP)", "setting": "[7]", "result": "diminish GPBP and/or GPBPΔ26 expression"}]}, {"molecule": "SiGPBP/Δ26-4: silencer of GPBP and/or GPBPΔ26 expression, SEQ ID NO:50 (guide AAAGGCGUCACAGGACAUGAA; listed as RNA, chemistry not given here)", "values": [{"measurement": "GPBP expression (endogenous 91- and 120-kDa GPBP)", "setting": "[7]", "result": "diminish GPBP and/or GPBPΔ26 expression"}]}, {"molecule": "SiGPBP: silencer of GPBP expression, SEQ ID NO:51 (AAGCCCUAUAGUCGCUCUUCC; listed as RNA, chemistry not given here)", "values": [{"measurement": "GPBP expression (endogenous 91- and 120-kDa GPBP)", "setting": "[7]", "result": "diminish GPBP and/or GPBPΔ26 expression"}]}, {"molecule": "B1", "values": [{"measurement": "auto-phosphorylation activity", "setting": "[8]", "result": "greater auto-phosphorylation activity at pH 5 than full sized GPBP"}]}]}
